What was measured:
Assay in all cases: relative viability (nuclei count vs DMSO), 5 days (fraction); higher = more cells survive
201T = test system: 201T
Summary of the method: (§1)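 Relative viability was taken as the ratio of nuclei in treated wells to nuclei in vehicle wells. Lung cancer cell lines in 1536-well plates received compounds by pin tool one day after seeding, either one drug alone or a fixed anchor-drug dose plus five library-drug doses (not always all listed) in √10 steps. Nuclei were counted on 4× images after 5 days of treatment, and values are medians of duplicate plates.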

BEN = test system: BEN
Summary of the method: as §1

CAL-12T = test system: CAL-12T
Summary of the method: as §1

ChaGo-K-1 = test system: ChaGo-K-1
Summary of the method: as §1

EMC-BAC-2 = test system: EMC-BAC-2
Summary of the method: as §1

H3255 = test system: H3255
Summary of the method: as §1

HCC-15 = test system: HCC-15
Summary of the method: as §1

HOP-62 = test system: HOP-62
Summary of the method: as §1

LU99A = test system: LU99A
Summary of the method: as §1

NCI-H1395 = test system: NCI-H1395
Summary of the method: as §1

NCI-H1650 = test system: NCI-H1650
Summary of the method: as §1

NCI-H1734 = test system: NCI-H1734
Summary of the method: as §1

NCI-H1944 = test system: NCI-H1944
Summary of the method: as §1

NCI-H2009 = test system: NCI-H2009
Summary of the method: as §1

NCI-H2023 = test system: NCI-H2023
Summary of the method: as §1

NCI-H2342 = test system: NCI-H2342
Summary of the method: as §1

NCI-H2347 = test system: NCI-H2347
Summary of the method: as §1

NCI-H23 = test system: NCI-H23
Summary of the method: as §1

NCI-H2405 = test system: NCI-H2405
Summary of the method: as §1

NCI-H358 = test system: NCI-H358
Summary of the method: as §1

NCI-H441 = test system: NCI-H441
Summary of the method: as §1

NCI-H522 = test system: NCI-H522
Summary of the method: as §1

NCI-H650 = test system: NCI-H650
Summary of the method: as §1

SK-LU-1 = test system: SK-LU-1
Summary of the method: as §1

SW 900 = test system: SW 900
Summary of the method: as §1

## Nc1cccc2c1CN(C1CCC(=O)NC1=O)C2=O (stereo not given) [Lenalidomide] + Cc1nc(Nc2ncc(C(=O)Nc3c(C)cccc3Cl)s2)cc(N2CCN(CCO)CC2)n1 [Dasatinib] (partner 0.075 µM)
201T; first compound 0.253 µM
  relative viability: 0.598
201T; first compound 2.53 µM
  relative viability: 0.581
201T; first compound 8 µM
  relative viability: 0.538
BEN; first compound 0.253 µM
  relative viability: 0.385
BEN; first compound 0.8 µM
  relative viability: 0.258
BEN; first compound 2.53 µM
  relative viability: 0.293
BEN; first compound 8 µM
  relative viability: 0.241
CAL-12T; first compound 0.253 µM
  relative viability: 0.262
CAL-12T; first compound 0.8 µM
  relative viability: 0.345
CAL-12T; first compound 2.53 µM
  relative viability: 0.397
CAL-12T; first compound 8 µM
  relative viability: 0.368
ChaGo-K-1; first compound 0.253 µM
  relative viability: 0.565
ChaGo-K-1; first compound 0.8 µM
  relative viability: 0.495
ChaGo-K-1; first compound 2.53 µM
  relative viability: 0.677
ChaGo-K-1; first compound 8 µM
  relative viability: 0.595
EMC-BAC-2; first compound 0.253 µM
  relative viability: 0.319
EMC-BAC-2; first compound 0.8 µM
  relative viability: 0.28
EMC-BAC-2; first compound 2.53 µM
  relative viability: 0.33
EMC-BAC-2; first compound 8 µM
  relative viability: 0.256
H3255; first compound 0.253 µM
  relative viability: 0.365
H3255; first compound 0.8 µM
  relative viability: 0.32
H3255; first compound 2.53 µM
  relative viability: 0.34
H3255; first compound 8 µM
  relative viability: 0.301
HCC-15; first compound 0.253 µM
  relative viability: 0.629
HCC-15; first compound 0.8 µM
  relative viability: 0.526
HCC-15; first compound 2.53 µM
  relative viability: 0.816
HCC-15; first compound 8 µM
  relative viability: 0.527
HOP-62; first compound 0.253 µM
  relative viability: 0.67
HOP-62; first compound 0.8 µM
  relative viability: 0.615
HOP-62; first compound 2.53 µM
  relative viability: 0.79
HOP-62; first compound 8 µM
  relative viability: 0.583
LU99A; first compound 0.253 µM
  relative viability: 0.473
LU99A; first compound 0.8 µM
  relative viability: 0.471
LU99A; first compound 2.53 µM
  relative viability: 0.54
LU99A; first compound 8 µM
  relative viability: 0.308
NCI-H1395; first compound 0.253 µM
  relative viability: 0.428
NCI-H1395; first compound 0.8 µM
  relative viability: 0.383
NCI-H1395; first compound 2.53 µM
  relative viability: 0.392
NCI-H1395; first compound 8 µM
  relative viability: 0.367
NCI-H1650; first compound 0.8 µM
  relative viability: 0.241
NCI-H1650; first compound 2.53 µM
  relative viability: 0.316
NCI-H1650; first compound 8 µM
  relative viability: 0.303
NCI-H1734; first compound 0.253 µM
  relative viability: 0.506
NCI-H1734; first compound 0.8 µM
  relative viability: 0.474
NCI-H1734; first compound 2.53 µM
  relative viability: 0.562
NCI-H1734; first compound 8 µM
  relative viability: 0.4
NCI-H1944; first compound 0.253 µM
  relative viability: 0.239
NCI-H1944; first compound 0.8 µM
  relative viability: 0.251
NCI-H1944; first compound 2.53 µM
  relative viability: 0.208
NCI-H1944; first compound 8 µM
  relative viability: 0.173
NCI-H2009; first compound 0.253 µM
  relative viability: 0.326
NCI-H2009; first compound 0.8 µM
  relative viability: 0.299
NCI-H2009; first compound 2.53 µM
  relative viability: 0.351
NCI-H2009; first compound 8 µM
  relative viability: 0.284
NCI-H2023; first compound 0.253 µM
  relative viability: 0.612
NCI-H2023; first compound 0.8 µM
  relative viability: 0.515
NCI-H2023; first compound 2.53 µM
  relative viability: 0.608
NCI-H2023; first compound 8 µM
  relative viability: 0.416
NCI-H2342; first compound 0.253 µM
  relative viability: 0.312
NCI-H2342; first compound 0.8 µM
  relative viability: 0.305
NCI-H2342; first compound 2.53 µM
  relative viability: 0.322
NCI-H2342; first compound 8 µM
  relative viability: 0.3
NCI-H2347; first compound 0.253 µM
  relative viability: 0.264
NCI-H2347; first compound 0.8 µM
  relative viability: 0.365
NCI-H2347; first compound 2.53 µM
  relative viability: 0.286
NCI-H2347; first compound 8 µM
  relative viability: 0.214
NCI-H23; first compound 0.253 µM
  relative viability: 0.857
NCI-H23; first compound 0.8 µM
  relative viability: 0.543
NCI-H23; first compound 2.53 µM
  relative viability: 0.97
NCI-H23; first compound 8 µM
  relative viability: 0.687
NCI-H2405; first compound 0.253 µM
  relative viability: 0.23
NCI-H2405; first compound 0.8 µM
  relative viability: 0.185
NCI-H2405; first compound 2.53 µM
  relative viability: 0.217
NCI-H2405; first compound 8 µM
  relative viability: 0.21
NCI-H358; first compound 0.253 µM
  relative viability: 0.196
NCI-H358; first compound 0.8 µM
  relative viability: 0.235
NCI-H358; first compound 2.53 µM
  relative viability: 0.19
NCI-H358; first compound 8 µM
  relative viability: 0.165
NCI-H441; first compound 0.253 µM
  relative viability: 0.67
NCI-H441; first compound 0.8 µM
  relative viability: 0.518
NCI-H441; first compound 2.53 µM
  relative viability: 0.648
NCI-H441; first compound 8 µM
  relative viability: 0.493
NCI-H522; first compound 0.253 µM
  relative viability: 1
NCI-H522; first compound 2.53 µM
  relative viability: 0.749
NCI-H522; first compound 8 µM
  relative viability: 0.678
NCI-H650; first compound 0.253 µM
  relative viability: 0.459
NCI-H650; first compound 2.53 µM
  relative viability: 0.474
NCI-H650; first compound 8 µM
  relative viability: 0.355
SK-LU-1; first compound 0.253 µM
  relative viability: 0.175
SK-LU-1; first compound 0.8 µM
  relative viability: 0.206
SK-LU-1; first compound 2.53 µM
  relative viability: 0.178
SK-LU-1; first compound 8 µM
  relative viability: 0.143
SW 900; first compound 0.253 µM
  relative viability: 0.498
SW 900; first compound 2.53 µM
  relative viability: 0.606
SW 900; first compound 8 µM
  relative viability: 0.828

Reference: the supplement of paper PMC10307832
